# Results published in patent US12005050B2, “Methods for preventing or treating H. pylori infection” (TENNOR THERAPEUTICS (SUZHOU) LIMITED, priority 2022, dated 2024).
# Assay: Safety tolerance assessment, adverse events (Example 1)
# Format: in vivo, human
# Protocol: 40 asymptomatic healthy patients that are positive for Helicobacter pylori infection were admitted to the trial. The 40 patients were randomly allocated to four groups at a ratio of 1:1:1:1.
# Different therapies were administered to the patients of each group according to the schedule below: • Group A: • Compound I capsule 200 mg/time (2 capsules, 100 mg/capsule), twice per day (BID); rabeprazole sodium enteric-coated tablet 20 mg/time (1 tablet, 20 mg/tablet), twice per day (BID) • Group B: • Compound I capsule 400 mg/time (4 capsules, 100 mg/capsule), twice per day (BID); rabeprazole sodium enteric-coated tablet 20 mg/time (1 tablet, 20 mg/tablet), twice per day (BID) • Group C: • Compound I capsule 600 mg/time (6 capsules, 100 mg/capsule), twice per day (BID); rabeprazole sodium enteric-coated tablet 20 mg/time (1 tablet, 20 mg/tablet), twice per day (BID) • Group D: • Compound I capsule 400 mg/time (4 capsules, 100 mg/capsule), twice per day (BID); rabeprazole sodium enteric-coated tablet 20 mg/time (1 tablet, 20 mg/tablet), twice per day (BID); amoxicillin capsule 1 g/time (4 capsules, 0.25 g/capsule), twice per day (BID)
# All patients were admitted to the clinical research center 1 day before dosing (D-1 Day), randomly allocated to respective groups and completed examinations for safety and baseline indicators. From day 1 to day 14, respective therapies/drugs were orally administered to the patients within 30 minutes after breakfast and dinner. On day 15, the last dose was administered orally to the patients within 30 minutes after breakfast. During the trial, each patient was dosed for 29 times in total. All patients left the hospital after completing a safety tolerance assessment on day 17 and returned to the clinical research center for urea breath test (UBT) follow-up examination between days 44 and 50 to evaluate the effect of Helicobacter pylori eradication.
# The safety tolerance assessment incudes assessment of adverse events (AE), serious adverse events (SAE), drug-related AEs, and AEs leading to withdrawal.
# The number and incidence of all adverse events were summarized according to the respective trial group, systemic organ classification and preferred terminology.
# By trial group, according to the CTCA 5.0 rating, the list describes the incidence of adverse events in each trial group (occurred in each trial group alone, in 2 groups or 3 groups).
# By trial group, the mean, standard deviation, median, minimum and maximum values of vital signs (blood pressure, breathing, pulse and body temperature) and laboratory indicators before and after drug administration were calculated, and when necessary, paired t-test or non-parametric test were used for before-and-after comparison.
# SAE and Suspected Unintended Serious Adverse Reactions (SUSAR) were listed separately.
# [1] = Group A: Compound I 200 mg BID + rabeprazole sodium 20 mg BID
# [2] = Group A: Compound I 200 mg BID + rabeprazole sodium 20 mg BID, N = 10
# [3] = Group B: Compound I 400 mg BID + rabeprazole sodium 20 mg BID
# [4] = Group B: Compound I 400 mg BID + rabeprazole sodium 20 mg BID, N = 10
# [5] = Group C: Compound I 600 mg BID + rabeprazole sodium 20 mg BID
# [6] = Group C: Compound I 600 mg BID + rabeprazole sodium 20 mg BID, N = 10
# [7] = Group D: Compound I 400 mg BID + rabeprazole sodium 20 mg BID + amoxicillin 1 g BID
# [8] = Group D: Compound I 400 mg BID + rabeprazole sodium 20 mg BID + amoxicillin 1 g BID, N = 10
structure (smiles),measurement,setting,value
"CO[C@H]1/C=C/O[C@@]2(C)Oc3c(C)c(O)c4c(c3C2=O)C2=NC3(CCN(CCn5c([N+](=O)[O-])cnc5C)CC3)NC2=C(NC(=O)/C(C)=C\C=C\[C@H](C)[C@H](O)[C@@H](C)[C@@H](O)[C@@H](C)[C@H](OC(C)=O)[C@@H]1C)C4=O [Compound I, 4-Deoxy-3,4-[2-spiro-[1-[2-(2-methyl-5-nitro-imidazol-1-yl)ethyl]-piperidin-4-yl]]-(1H)-imidazo-(2,5-dihydro)rifamycin]","Elevated serum creatinine, number of cases",[1],4 cases
same,Incidence of elevated serum creatinine (common AE associated with the combination therapy),[1],30%
same,Incidence of hyperglycemia (common AE associated with the combination therapy),[1],20%
same,Drug related TEAE (patients/episodes),[2],(6/18)
same,Incidence of AEs: Drug related TEAE,[2],60%
same,Incidence of AEs: TEAE,[2],60%
same,TEAE (patients/episodes),[2],(6/18)
same,"Elevated serum creatinine, number of cases",[3],1 case
same,Grade 3 AEs,[3],3
same,Incidence of elevated hemobilirubin (common AE associated with the combination therapy),[3],"Group B: elevated hemobilirubin (20%), hyperglycemia (20%);"
same,Incidence of hyperglycemia (common AE associated with the combination therapy),[3],"Group B: elevated hemobilirubin (20%), hyperglycemia (20%);"
same,Drug related TEAE (patients/episodes),[4],(7/9)
same,Incidence of AEs: Drug related TEAE,[4],70%
same,Incidence of AEs: TEAE,[4],80%
same,TEAE (patients/episodes),[4],(8/12)
same,Common adverse events with incidence of ≥15% associated with the combination therapy,[5],Group C: absent;
same,"Elevated serum creatinine, number of cases",[5],2 cases
same,Drug related TEAE (patients/episodes),[6],(5/8)
same,Incidence of AEs: Drug related TEAE,[6],50%
same,Incidence of AEs: TEAE,[6],50%
same,TEAE (patients/episodes),[6],(5/8)
same,"Elevated serum creatinine, number of cases",[7],2 cases
same,Incidence of elevated alanine aminotransferase (common AE associated with the combination therapy),[7],"Group D: elevated alanine aminotransferase (20%), elevated aspartic acid aminotransferase (20%), hypertriglyceridemia (20%), hyperuricemia (20%), rash (20%), papules (20%)."
same,Incidence of elevated aspartic acid aminotransferase (common AE associated with the combination therapy),[7],"Group D: elevated alanine aminotransferase (20%), elevated aspartic acid aminotransferase (20%), hypertriglyceridemia (20%), hyperuricemia (20%), rash (20%), papules (20%)."
same,Incidence of hypertriglyceridemia (common AE associated with the combination therapy),[7],"Group D: elevated alanine aminotransferase (20%), elevated aspartic acid aminotransferase (20%), hypertriglyceridemia (20%), hyperuricemia (20%), rash (20%), papules (20%)."
same,Incidence of hyperuricemia (common AE associated with the combination therapy),[7],"Group D: elevated alanine aminotransferase (20%), elevated aspartic acid aminotransferase (20%), hypertriglyceridemia (20%), hyperuricemia (20%), rash (20%), papules (20%)."
same,Incidence of papules (common AE associated with the combination therapy),[7],"Group D: elevated alanine aminotransferase (20%), elevated aspartic acid aminotransferase (20%), hypertriglyceridemia (20%), hyperuricemia (20%), rash (20%), papules (20%)."
same,Incidence of rash (common AE associated with the combination therapy),[7],"Group D: elevated alanine aminotransferase (20%), elevated aspartic acid aminotransferase (20%), hypertriglyceridemia (20%), hyperuricemia (20%), rash (20%), papules (20%)."
same,Drug related TEAE (patients/episodes),[8],(7/17)
same,Incidence of AEs: Drug related TEAE,[8],70%
same,Incidence of AEs: TEAE,[8],80%
same,TEAE (patients/episodes),[8],(8/19)
same,"Decrease in renal creatinine clearance, incidence rate","Total, Groups A-D",7.5%
same,Drug-related AEs of grade 1,"Total, Groups A-D",45
same,Drug-related AEs of grade 2,"Total, Groups A-D",6 cases
same,"Drug-related skin abnormalities (rash, papules, itching), number of cases","Total, Groups A-D",8 cases
same,"Elevated serum creatinine, incidence rate","Total, Groups A-D",15%
same,"Elevated serum creatinine, number of cases","Total, Groups A-D",9 cases
same,"Grade 1 adverse events (CTC AE 5.0), number of cases","Total, Groups A-D",46 cases
same,"Grade 2 adverse events (CTC AE 5.0), number of cases","Total, Groups A-D",10 cases
same,"Hyperglycemia (unexpected adverse reaction), incidence","Total, Groups A-D",12.5%
same,"Skin abnormalities, number of cases","Total, Groups A-D",10 cases
same,"Unexpected adverse reactions, incidence","Total, Groups A-D",15.0%
same,Drug related TEAE (patients/episodes),"Total, Groups A-D, N = 40",(25/52)
same,Incidence of AEs: Drug related TEAE,"Total, Groups A-D, N = 40",62.5%
same,Incidence of AEs: TEAE,"Total, Groups A-D, N = 40",67.5%
same,TEAE (patients/episodes),"Total, Groups A-D, N = 40",(27/57)
same,"Hyperglycemia (unexpected adverse reaction), number of cases","Total, Groups A-D, grade 1",6 cases
same,"Unexpected adverse reactions, number of cases","Total, Groups A-D, grade 1",7 cases
same,"Elevated transaminases, number of cases","Total, Groups A-D, severity all grade 1",7 cases
same,Safety and tolerability of the combination therapy,administered continuously for 14 days in asymptomatic healthy people with positive Helicobacter pylori infection,good safety and tolerability characteristics
same,Serious adverse events (SAE),"entire trial, Groups A-D",no SAE
